test system: (R)-oxynitrilase; assay: Relative rates of dehydrocyanation of cyanohydrins by soluble (R)-oxynitrilase (initial rate studies); type: biochemical; conditions: 0.21 mM cyanohydrin, dehydrocyanation relative to benzaldehyde cyanohydrin
Description: The following standardized assay was utilized to measure the activity of oxynitrilase set forth in the Examples which follow. A solution of enzyme was prepared in 0.1M (pH 5.5) citrate buffer. A 3-ml sample of enzyme solution was combined with 30 microliters of 0.21M benzaldehyde cyanohydrin and the rate of increase in absorbance at 250 nm recorded. Then, the same procedure was followed with a 3-ml sample of 0.1M (pH 5.5) citrate buffer to obtain the background, non-enzymatic, reaction. The activity in units/ml was calculated by subtracting the slope of the non-enzymatic reaction from the slope of the enzymatic reaction and converting the absorbance change with time to concentration change with time using a molar extinction coefficient of 13,200 M^-1 cm^-1.
Relative rates of dehydrocyanation of different cyanohydrins subjected to the action of the soluble catalyst (R)-oxynitrilase were determined from initial rate studies. A solution of (R)-oxynitrilase was combined with a 0.21 mM solution of cyanohydrin and the rate of increase of absorbance at the wavelength corresponding to the absorption maxima was monitored as described above in connection with the measurement of catalyst activity. The measured activity was calculated using the appropriate extinction coefficient for the corresponding aldehyde.

| SMILES | Relative Rate |
| --- | --- |
| Cc1ccc(C(O)C#N)o1 (stereo not drawn) [5-Methylfurfural cyanohydrin] | 2.8 |
| N#CC(O)c1ccccc1 (stereo not drawn) [Benzaldehyde cyanohydrin, reference compound] | 1.0 |
| N#CC(O)C=Cc1ccccc1 (stereo not drawn) [Cinnamaldehyde cyanohydrin] | 0.05 |
| CC=CC(O)C#N (stereo not drawn) [Crotonaldehyde cyanohydrin] | 0.90 |
| N#CC(O)c1ccco1 (stereo not drawn) [Furfural cyanohydrin] | 2.5 |
| Cc1ccc(C(O)C#N)cc1 (stereo not drawn) [P-Tolualdehyde cyanohydrin] | 0.45 |
| N#CC(O)c1ccc2c(c1)OCO2 (stereo not drawn) [Piperonal cyanohydrin] | 2.1 |
| COc1cccc(C(O)C#N)c1 (stereo not drawn) [m-Anisaldehyde cyanohydrin] | 0.19 |
| COc1ccc(C(O)C#N)cc1 (stereo not drawn) [p-Anisaldehyde cyanohydrin] | 0.17 |
| CCc1ccc(C(O)C#N)cc1 (stereo not drawn) [p-Ethylbenzaldehyde cyanohydrin] | 0.13 |

test system: not given; assay: not given; conditions: benzaldehyde cyanohydrin to benzaldehyde and hydrogen cyanide; cited from earlier work

| SMILES | dehydrocyanation equilibrium constant |
| --- | --- |
| N#CC(O)c1ccccc1 (stereo not drawn) [Benzaldehyde cyanohydrin, reference compound] | 5 mM |

test system: not listed separately; assay: Permeability in supported-gas membrane system of FIG. 1; conditions: both dehydrocyanation products approximately equal

| SMILES | average permeability relative to the permeability of benzaldehyde cyanohydrin |
| --- | --- |
| O=Cc1ccccc1 [benzaldehyde] | roughly 700 times |

Source: patent USRE35230E (priority 1994, dated 1996)
